In data set [1] the test system is A2780 ovarian carcinoma cells. Set-up: method as in ref 14 (Bicaku, E. et al.). Conditions: ref 14 (Bicaku, E. et al.); read-out: Antiproliferative Activity IC50 A2780; cited from earlier work.
The subject of data set [2] is HT-29 (colon adenocarcinoma). Details: method as in ref 52 (a number printed in a supplementary file, which may have a reference list of its own: not looked up in the article's list). Particulars: read-out: Antiproliferative Activity IC50 HT-29; cited from earlier work.
Data set [3] relates to OVCAR-3 ovarian carcinoma cells. Set-up: method as in ref 14 (Bicaku, E. et al.). Conditions: ref 14 (Bicaku, E. et al.); read-out: Antiproliferative Activity IC50 OVCAR-3; cited from earlier work.
On the set-up of data set [4]: method as in PMID 12734814, PMID 17116587, PMID 17613018. Particulars: cited from earlier work.
Data set [5] deals with MCF7 (breast adenocarcinoma). Details: method as in PMID 7903152. Conditions: read-out: Antiproliferative Activity IC50 MCF7; cited from earlier work.
In data set [6] the test system is OVCAR-8 ovarian carcinoma cells. Details: method as in ref 14 (Bicaku, E. et al.). Particulars: ref 14 (Bicaku, E. et al.); read-out: Antiproliferative Activity IC50 OVCAR-8; cited from earlier work.
Data set [7] concerns SKOV3 ovarian carcinoma cells. Put plainly: Antiproliferative activity against SKOV3 (MTT). The format is cell-based. Conditions: Homo sapiens, SK-OV-3, 72 h. As to the method:
(§1) The in vitro antiproliferative activity of compounds 38, 42, and 45 against a panel of five human ovarian carcinoma cell lines (SKOV3, IGROV-1, A2780, OVCAR-8, and OVCAR-3) was evaluated by a colorimetric method (Table 3) and compared with paclitaxel. […] For SKOV3, the potency reduction observed for paclitaxel together with a sustained or improved (42 with a 7 nM IC50 value) potency for MDS results in a more favorable profile of the MDS compared to paclitaxel.
(§2) MCF7 (human breast carcinoma), SKOV-3 (human ovarian carcinoma), OVCAR-3 (human ovarian carcinoma), OVCAR-8 (human ovarian carcinoma), and HeLa (human cervical carcinoma) cell lines were cultured in Dulbecco’s Modified Eagle’s Medium (DMEM) (Gibco, Thermo Fischer Scientific) containing 10% (v/v) heat-inactivated fetal bovine serum (HIFBS) (Lonza-Cambrex, Karlskoga, Sweden), 2 mM L-glutamine (Lonza-Cambrex, Karlskoga, Sweden), 100 μg/mL streptomycin, and 100 IU/mL penicillin (Lonza-Cambrex) at 37 °C in humidified 95% air and 5% CO2. HT-29 (human colon carcinoma), IGROV-1 (human ovarian carcinoma), and A2780 (human ovarian carcinoma) cell lines were cultured in RPMI 1640 medium (Gibco, Thermo Fischer Scientific) supplemented with 10% HIFBS, 100 μg/mL streptomycin, and 100 IU/mL penicillin at 37 °C in humidified 95% air and 5% CO2 atmosphere. The presence of mycoplasma was routinely checked with MycoAlert kit (Lonza-Cambrex) and only mycoplasma-free cells were used in the experiments. Ovarian tumor cell lines were originally acquired from Dr Atanasio Pandiella from Centro de Investigación del Cáncer (CIC), Salamanca, Spain. HeLa, HT-29 and MCF7 tumor cell lines were provided by Dr Faustino Mollinedo from Centro de Investigaciones Biológicas Margarita Salas, Madrid, Spain.
(§3) MCF7, HeLa, and HT-29 cell proliferation, when treated with the corresponding compounds, were determined using the XTT (sodium 3’-[1(phenylaminocarbonyl)-3,4-tetrazolium]-bis(4-methoxy-6-nitro)-benzenesulfonic acid hydrate) cell proliferation kit (Roche Molecular Biochemicals, Mannheim, Germany). […] The absorbance of the formazan product generated was measured at 450 nm using a multi-well plate reader. SKOV-3, OVCAR-3, OVCAR-8, IGROV-1, A-2780 cell proliferation, when treated with the corresponding compound, were determined using MTT (3-(4,5-dimethylthiazol-2-yl)-2,5-diphenyl-2H-tetrazolium bromide) (Sigma-Aldrich, St. Louis, MO, USA). […] Absorbance was measured at 570 nm in a plate reader (Ultra Evolution, Tecan, Männedorf, Suiza). […] After 24 h incubation, to allow cells to attach to the plates, all compounds were added at 1 µM concentration and the effect on the proliferation was evaluated 72 h post-treatment. […]

In the next data set the test system is SKOV3 cells. Put plainly: Annexin V-FITC/PI cell death quantification in SKOV3. The format is cell-based, human. Particulars: SKOV3, 72 h, 38 600 nM, 42 50 nM, 45 400 nM, paclitaxel 10 nM. As to the method: To determine whether the cytotoxic/antiproliferative effect of the MDS was due to apoptosis induction, cells were treated with variable concentrations of the drug for 72 h or 6 days, stained with Annexin V-FITC (AnV) and propidium iodide (PI), and analyzed by flow cytometry. Double negative cells (AnV^−/PI^−) were classified as live cells (L), cells positive for AnV and negative for PI (AnV^+/PI^−) were considered in Early Apoptosis (EA), cells negative for AnV and positive for PI (AnV^−/PI^+) were considered necrotic (N), and double-positive cells (AnV^+/PI^+) as Late Apoptosis (LA). In all cases, the compounds were used at the same concentrations previously used in cell cycle studies (Table 5).
MCF7, SKOV-3, and HeLa apoptotic cells were quantified using an Annexin V-FITC/PI apoptosis detection kit (Immunostep, Salamanca, Spain) according to the manufacturer’s guidelines. 1.5 mL/well of cells in the exponential growth phase at 2·10^4 cells/mL were seeded onto 12-well plates and left to attach overnight. After 24 h incubation, cells were treated with selected compounds. After 72 h (MCF7, SKOV-3, and HeLa) and 6 days (MCF7) post-treatment, attached and floating cells of treated and untreated wells were collected, centrifuged, resuspended in Annexin V binding buffer, and stained with Annexin V-FITC/PI. Cells were then incubated in darkness at room temperature for 15 min and a total of 30,000 cells were acquired and analyzed using the BD Accuri™ C6 Plus Flow Cytometer and Software (version 1.0.264.21, BD Biosciences, San José, CA, USA), respectively. Compounds were dissolved in DMSO and the final solvent concentration never exceeded 0.5% (v/v). Control wells included cells with 0.5% (v/v) DMSO.

Data set [8] relates to HeLa (cervix epithelioid carcinoma). Details: method as in PMID 7903152. Conditions: read-out: Antiproliferative Activity IC50 HeLa; cited from earlier work.
Data set [9] relates to IGROV-1 ovarian carcinoma cells. Put plainly: Antiproliferative activity against IGROV-1 (MTT). Conditions: Homo sapiens, 72 h. Format: cell-based. The protocol: as §1, §2, §3

pIC50: −log10 of the molar value. Some results are limits rather than exact numbers.

Turning to `CC(=O)O[C@H]1C(=O)[C@@]2(C)[C@H]([C@H](OC(=O)c3ccccc3)[C@]3(O)C[C@H](OC(=O)[C@H](O)[C@@H](NC(=O)c4ccccc4)c4ccccc4)C(C)=C1C3(C)C)[C@]1(OC(C)=O)CO[C@@H]1C[C@@H]2O` [Paclitaxel, reference compound], the pIC50 (in general, the negative decadic logarithm of the IC50, by convention in mol/L) in data set [1] was 8.52; in [2], 8.55; in [3], 7.77; in data set [5], 8.60; in [6], 8.22; in [7] it was 7.09. The pIC50 was 8.59 in [8] and 7.41 in data set [9]. Besides, the Aqueous solubility (commonly the concentration that dissolves in the medium under given conditions) in [4] is below 2 µg/mL. In the data set on SKOV3 cells, the “Annexin V-FITC/PI 72 h EA (early apoptosis)” value turned out to be 3.8%. For the same molecule, the “Annexin V-FITC/PI 72 h LA (late apoptosis)” value in the data set with SKOV3 cells is reported as 3.1%. The “Annexin V-FITC/PI 72 h Live” value is on record as 90.7% in the data set with SKOV3 cells and 91% with SKOV3 cells (listed as paclitaxel). The “Annexin V-FITC/PI 72 h Necrosis” value in the data set with SKOV3 cells is on record as 2.4%. Moreover, in the data set with SKOV3 cells, the “Annexin V-positive SKOV3 cells” value is given as 7%.

(Values after paper PMC7918738, “Microtubule Destabilizing Sulfonamides as an Alternative to Taxane-Based Chemotherapy” (International Journal of Molecular Sciences, 2021).)
